Measured values taken from US20240336638A1, “IMIDAZOLE COMPOUND, AND INTERMEDIATE AND APPLICATION THEREOF” (priority 2021, published 2024).
Read-outs that look alike come from different tables or passages of the source.

Legend:
MCAO/R rats = experiment: Therapeutic administration (i.v.) in middle cerebral artery occlusion/reperfusion (MCAO/R) rats; assay type: in vivo, rat; conditions: for Bleeding time / Brain water content (%) / Cerebral infarction rate (%) / Clotting time / Neurological function score: once a day for 3 days, mean ± SD, n = 8; for Neurological function score: modified Bederson score
Protocol: Male SD rats weighing 250 to 300 g were taken, and the rats in each group fasted for 12 hours before modeling, while water was not restricted. According to the method of Longa et al.^[1], a rat model of MCAO/R was established by occluding the blood flow of internal carotid artery using the thread embolization method. The rats were anesthetized with 3% chloral hydrate (300 mg/kg, 1 mL/100 g body weight) through intraperitoneal injection and fixed in the supine position on the operating table. A midline incision was made in the neck, and the right common carotid artery was isolated using forceps and threaded for later use. The external and internal carotid arteries were isolated from the bifurcation of the common carotid artery. A single thread was threaded through the internal carotid artery, and two threads were threaded through the external carotid artery. Both distal and proximal ends were ligated, and the middle part of the ligation site was cut using ophthalmic scissors. The proximal main trunk of the external carotid artery was isolated and reserved for later use. The prepared cotton thread was used to half-ligate the common carotid artery (tying a slipknot), and the thread prepared for the internal carotid artery was tightened with hemostatic forceps, temporarily occluding the blood flow of the internal carotid artery. A small incision at the proximal main trunk of the external carotid artery was made using ophthalmic scissors, and then, the fishing line was held with straight forceps, inserted from this incision, and slowly advanced through the isolated proximal main trunk of the external carotid artery towards the intracranial direction of the internal carotid artery. The advancement was stopped at a predetermined position, and then the thread of the internal carotid artery that was tightened with the hemostatic forceps was loosened. […] Another thread was threaded and tightened around the proximal main trunk of the external carotid artery and the fishing line that had already been inserted into the predetermined position. The half-ligated thread on the common carotid artery was then loosened, and the skin was subsequently sutured. After 2 hours of ischemia, a small section of the fishing line was pulled out. […] After rats in the blank control group were anesthetized, only the bifurcation of the internal and external carotid arteries was exposed without the occlusion of the MCA.
Successfully modeled rats (neurological function score of 3 after reperfusion) were taken and divided into 20 groups (8 rats for each) according to the random number table method. The groups were divided into a model control group, three dose groups (high, 12 mg/kg, 2.4 mg/mL; medium, 6 mg/kg, 1.2 mg/mL; low, 3 mg/kg, 0.6 mg/mL) for each of the six test compounds, and a positive drug Ozagrel group (6 mg/kg, 1.2 mg/mL), respectively. Both blank and model control groups were administered equal volumes of mixed solvents, and the rats in each group were administered by tail vein injection (i.v.) 2 hours after reperfusion, once a day for 3 consecutive days, with a volume of 0.5 mL/100 g body weight.
Ten minutes after the last administration, the neurological function of the animals was graded according to the modified Bederson scoring method. The standard is as follows[2]: • 0 point: no neurological symptoms; • 1 point: when the rat is suspended by lifting its tail, the forelimb on the surgical side of the rat was flexed and pressed against the chest wall; • 2 points: on a smooth plane, when the rat is pushed from the surgical side to the opposite side, the resistance is less than when it is moved to the same side; • 3 points: the animal moves around or in circles when moving freely; • 4 points: flaccid paralysis, no spontaneous movement of limbs.
After Bederson scoring, the rats were executed by cervical dislocation, and the whole brain was removed and weighed. After weighing, the whole brain was placed in a −20° C. refrigerator for 20 minutes. […]

[1] = Blood-brain barrier (BBB) study in SD rats after single IV and PO administration, brain; assay type: in vivo; conditions: rat brain; for Cmax / Tmax / half-life / MRT last / MRT inf: Sprague-Dawley (SD); for MRT last: read-out: MRT(0−t); for MRT inf: read-out: MRT(0−∞)
Protocol: Effect Example 3: Pharmacokinetic and blood-brain barrier (BBB) studies of compounds after single intravenous (IV) and oral (PO) administration in SD rats
(§1) The experimental method of administration by gavage injection in rats: SD rats weighing 180 to 220 g were fasted for 12 hours prior to the experiment, with free access to water. After administration, food and water were withheld for 4 hours. After this 4-hour period, the rats were allowed free access to water, and food was provided after 8 hours. The drugs were administered at a set dose. N=3, blood samples were taken before administration, and 5 minutes, 0.25 hours, 0.5 hours, 0.75 hours, 1 hour, 2 hours, 4 hours, 8 hours, and 24 hours after administration, respectively, and placed into sodium heparin anticoagulant tubes. The tubes were centrifuged for 1 hour at 4° C. and at 8000 rpm for 5 minutes, and the plasma was then separated and stored in centrifuge tubes at −70° C. for analysis.
as §1, with “of intravenous” for “of”, “to” for “by gavage injection in”
The plasma concentration-time data were processed using the Phoenix® WinNonlin® 8.0 program to calculate pharmacokinetic parameters.
Among them, Cmax and Tmax are measured values, the elimination rate constant k of the tail section of the C-t curve is obtained from the linear regression of LnC-t, and the value of AUC0-4 is calculated by the trapezoidal area method, and the area under the curve from 0 to ∞ time is AUC=AUC0-4+Ct/k.

[2] = medium dose 6 mg/kg i.v. (Ozagrel group 6 mg/kg)

| SMILES | Bleeding time (MCAO/R rats; [2]) [s] | Brain water content (%) (MCAO/R rats; [2]) | Cerebral infarction rate (%) (MCAO/R rats; [2]) | Clotting time (MCAO/R rats; [2]) [s] | Neurological function score (MCAO/R rats; [2]) | Cmax ([1]; IV 1 mg/kg) [ng/g] | Tmax ([1]; IV 1 mg/kg) [min] | half-life ([1]; IV 1 mg/kg) [min] | MRT last ([1]; IV 1 mg/kg) [min] | MRT inf ([1]; IV 1 mg/kg) [min] | Cmax ([1]; PO 6 mg/kg) [ng/g] | Tmax ([1]; PO 6 mg/kg) [min] | half-life ([1]; PO 6 mg/kg) [min] | MRT last ([1]; PO 6 mg/kg) [min] | MRT inf ([1]; PO 6 mg/kg) [min] | AUC(0−t) ([1]; IV 1 mg/kg) [ng·h/g] | AUC(0−∞) ([1]; IV 1 mg/kg) [ng·h/g] | AUC(0−t) ([1]; PO 6 mg/kg) [ng·h/g] | AUC(0−∞) ([1]; PO 6 mg/kg) [ng·h/g] | also measured |
| --- | --- | --- | --- | --- | --- | --- | --- | --- | --- | --- | --- | --- | --- | --- | --- | --- | --- | --- | --- | --- |
| O=C(O)[C@@H]1C[C@H]1c1ccc(Cn2ccnc2)cc1 [Compound 19, (1R,2R)-2-(4-((1H-Imidazol-1-yl)methyl)phenyl)cyclopropane-1-carboxylic acid] | 274.13 ± 47.46 | 81.92 ± 1.66 | 22.38 | 148.63 ± 28.41 | 2.00 ± 0.76 | 36 | 4.8 | 22.8 | 21 | 33.6 | 168 | 15 | 46.2 | 73.2 | 79.2 | 16.44 | 19.83 | 289.35 | 296.91 | Bleeding time (MCAO/R rats; high dose 12 mg/kg i.v.): 304.75 ± 35.16 s; Brain water content (%) (MCAO/R rats; high dose 12 mg/kg i.v.): 80.84 ± 1.04%; Cerebral infarction rate (%) (MCAO/R rats; high dose 12 mg/kg i.v.): 13.48%; Clotting time (MCAO/R rats; high dose 12 mg/kg i.v.): 151.19 ± 21.35 s; Neurological function score (MCAO/R rats; high dose 12 mg/kg i.v.): 1.75 ± 0.89; reducing the infarct area (smallest mean infarct rate) (MCAO/R rats; high doses, comparison among test drugs): more advantageous; cerebral edema in rats (MCAO/R rats; low and medium doses): did not significantly improve; Bleeding time (MCAO/R rats; low dose 3 mg/kg i.v.): 272.38 ± 52.89 s; Brain water content (%) (MCAO/R rats; low dose 3 mg/kg i.v.): 82.40 ± 1.50 %; Cerebral infarction rate (%) (MCAO/R rats; low dose 3 mg/kg i.v.): 28.23 ± 2.76%; Clotting time (MCAO/R rats; low dose 3 mg/kg i.v.): 136.25 ± 36.28 s; Neurological function score (MCAO/R rats; low dose 3 mg/kg i.v.): 2.00 ± 0.53 |
| O=C(O)/C=C/c1ccc(Cn2ccnc2)cc1 [Ozagrel, reference compound] | 300.00 ± 26.93 | 79.73 ± 2.02 | 21.70 | 154.50 ± 16.91 | 1.50 ± 0.93 | 27.6 | 4.8 | 6.6 | 9 | 10.2 | 42.6 | 15 | 24 | 35.4 | 40.8 | 4.96 | 5.25 | 35.86 | 37.46 | – |
